Test: refractive index (Na D-line) (dimensionless); xn = mol fraction of the nth substance listed
Conditions: 100 kPa, Liquid, Standard Abbe refractometry

OCCCCCO [1,5-pentanediol] + O
refractive index
Conditions | x2 = 0 | x2 = 0.1235 | x2 = 0.2586 | x2 = 0.3455 | x2 = 0.4864 | x2 = 0.5755 | x2 = 0.6777 | x2 = 0.7611 | x2 = 0.8474 | x2 = 0.9205
288.15 K | 1.4503 | 1.4493 | 1.4477 | 1.4463 | 1.4425 | 1.4401 | 1.4342 | 1.4253 | 1.4085 | 1.3851
293.15 K | 1.449 | 1.4477 | 1.4462 | 1.4447 | 1.4411 | 1.4386 | 1.4328 | 1.4239 | 1.4073 | 1.384
298.15 K | 1.4478 | 1.4464 | 1.4447 | 1.4432 | 1.4396 | 1.4371 | 1.4315 | 1.4225 | 1.406 | 1.3828
303.15 K | 1.4466 | 1.4448 | 1.4431 | 1.4416 | 1.438 | 1.4355 | 1.43 | 1.4211 | 1.4048 | 1.3816
308.15 K | 1.4454 | 1.4434 | 1.4416 | 1.4402 | 1.4367 | 1.4341 | 1.4286 | 1.4197 | 1.4035 | 1.3804
313.15 K | 1.4441 | 1.4419 | 1.44 | 1.4386 | 1.4352 | 1.4326 | 1.4271 | 1.4183 | 1.4022 | 1.3793
318.15 K | 1.443 | 1.4408 | 1.4386 | 1.4373 | 1.434 | 1.4313 | 1.4259 | 1.4171 | 1.401 | 1.3781

OCCCO [propan-1,3-diol] + O
refractive index
Conditions | x2 = 0 | x2 = 0.1737 | x2 = 0.2519 | x2 = 0.3669 | x2 = 0.4553 | x2 = 0.5501 | x2 = 0.6509 | x2 = 0.7532 | x2 = 0.8508
288.15 K | 1.4407 | 1.4361 | 1.4335 | 1.429 | 1.4248 | 1.419 | 1.4107 | 1.3985 | 1.381
293.15 K | 1.4393 | 1.4347 | 1.4321 | 1.4276 | 1.4234 | 1.4177 | 1.4095 | 1.3973 | 1.38
298.15 K | 1.438 | 1.4334 | 1.4308 | 1.4263 | 1.4221 | 1.4165 | 1.4083 | 1.3962 | 1.379
303.15 K | 1.4367 | 1.432 | 1.4295 | 1.425 | 1.4208 | 1.4152 | 1.4071 | 1.3951 | 1.378
308.15 K | 1.4353 | 1.4306 | 1.4281 | 1.4236 | 1.4194 | 1.4139 | 1.4059 | 1.3939 | 1.3771
313.15 K | 1.434 | 1.4294 | 1.4268 | 1.4223 | 1.4181 | 1.4127 | 1.4047 | 1.3929 | 1.3761
318.15 K | 1.4327 | 1.4281 | 1.4255 | 1.421 | 1.4169 | 1.4115 | 1.4036 | 1.3918 | 1.3752
